Legend:
[1] = tested on: acute myeloid leukemia (TN and relapsed/refractory AML); test: Phase 2 study in AML (TN and r/r): landmark response and survival analyses; format: in vivo, human
Method: In a Phase 2 study of 206 AML patients, both treatment naïve (TN), and relapsed/refractory (r/r), patients were treated with Compound I-1 using different doses and schedules. The patients were randomized either to a 5- or 10-day dosing regimen. The patients who were part of the 10-day regimen were given Compound I-1 at 60 mg/m^2/day for 1-4 cycles, then were given the 5-day regimen. The patients who were part of the 5-day regimen were randomized either to the biologically effective dose group (60 mg/m^2 daily) or the highest well tolerated dose group (90 mg/m^2 daily).
Landmark response (CR, CRi, or CRp based on 2003 IWG criteria, grouped together as composite CR or CRc), and overall survival (OS) analyses for patients alive at or beyond month 3 and month 5 (time of planned start of cycle 4 and cycle 6, respectively) were conducted. […] The results in responding and non-responding patients were also compared to see whether survival benefit was restricted to responding patients only.

[2] = Phase 1/2 trial safety: adverse events, all-cause mortality; format: in vivo, human
Text: Safety was monitored throughout the study by physical examinations and clinical laboratory tests, including hematology, chemistry for liver and renal function, urinalysis, pregnancy tests, pharmacokinetics, epi-genetics, buccal swab, and pharmacogenetic markers. Electrocardiograms were obtained at baseline screening and day 1 of each treatment cycle.
The primary endpoint was overall response, which was a composite of complete response (CR), partial response, marrow complete response (mCR), and hematological improvement. Overall response was assessed by local investigators. Secondary endpoints included the individual components of overall response, time to response, duration of response, overall survival, blood transfusion and platelet transfusion independence at weeks 8 and 16, and safety, including the incidence of adverse events, and all-cause early mortality at 30, 60, and 90 days. Exploratory analyses were done to examine the association between baseline characteristics and overall response.
Treatment-emergent adverse events, which are events that first occurred or worsened after the first dose of study drug until 30 days after the last dose or until the start of an alternative anticancer treatment (whichever occurred first), and all-cause 30-day, 60-day, and 90-day cumulative mortality, were summarized descriptively.

[3] = tested on: relapsed/refractory (r/r) AML; test: Phase 2 study in relapsed/refractory AML: response, duration of response, survival; format: in vivo, human; conditions: for CR response rate, % / CRc (CR + CRp + CRi) response rate, % / CRi response rate, % / CRp response rate, % / CRc, %: r/r AML; for CRc, %: all regimens
Method: A Phase 2 study of Compound I-1 using different regimens and doses (randomized 5-day regimen cohorts of 60 mg/m^2/d vs 90 mg/m^2/d SC) and a cohort of 10-day regimen in the first 1-4 cycles at 60 mg/m^2/d followed by subsequent cycles of 5-day regimen) was conducted as described above. Response and duration of response were assessed using IWG 2003 criteria: Complete Response (CR), CR with incomplete platelet recovery (CRp), and CR with incomplete count recovery (CRi). CR+CRp+CRi was defined as composite CR (CRc). Overall survival (OS) was assessed using the Kaplan-Meier (KM) method. Response status for each dose/regimen cohort and the overall treated population were assessed with analyses of duration of response and long-term survival.

[4] = Phase 3 trial safety: adverse events, ECG, mortality; format: in vivo
Text: Two co-primary endpoints were used: complete response (CR) rate based on modified International Working Group (IWG) 2003 AML Response Criteria and OS (the number of days from randomization to death). Secondary endpoints included CRc (CR+CR with incomplete blood count recovery [CRi]+CR with incomplete platelet recovery [CRp]) rate, number of days alive and out of the hospital (NDAOH), progression-free survival (PFS), health related quality of life (QOL) by EQ-5D (consisting of the EQ-5D-5L descriptive system and the EQ Visual Analogue Scale [EQ VAS]), duration of CR (the time from first CR to time of relapse), incidence and severity of adverse events (AEs), and 30- and 60-day all-cause mortality.
The incidence and severity of adverse events (AEs) and 30- and 60-day all-cause mortality were summarized with descriptive statistics. No formal statistical testing between the treatment groups was planned for safety assessments.

[5] = 5 Day regimen (60 and 90 mg/m^2), n = 50
[6] = 10 Day regimen (60 mg/m^2), n = 53

Nc1ncn([C@H]2CC(OP(=O)(O)OC[C@H]3O[C@@H](n4cnc5c(=O)[nH]c(N)nc54)CC3O)[C@@H](CO)O2)c(=O)n1 (stereo partly shown) [Compound I-1]
Median OS ([1]; landmark, at least 4 cycles): 13.7 m | CRc rate ([1]; landmark, at least 4 cycles (97 patients)): 62% | OS HR ([1]; landmark, at least 4 cycles vs not): 0.53 | Median OS ([1]; landmark, at least 6 cycles): 19.9 m | CRc rate ([1]; landmark, at least 6 cycles (51 patients)): 82.4% | OS HR ([1]; landmark, at least 6 cycles vs not): 0.42 | Median OS ([1]; landmark, fewer than 4 cycles): 6.1 m | CRc rate ([1]; landmark, fewer than 4 cycles (64 patients)): 25% | Median OS ([1]; landmark, fewer than 6 cycles): 8.8 m | CRc rate ([1]; landmark, fewer than 6 cycles (82 patients)): 35.4% | Median OS ([1]; no CRc, at least 4 cycles): 8 m | OS HR ([1]; no CRc, at least 4 cycles vs not): 0.63 | Median OS ([1]; no CRc, at least 6 cycles): 12.9 m | OS HR ([1]; no CRc, at least 6 cycles vs not): 0.40 | Median OS ([1]; no CRc, fewer than 4 cycles): 5.4 m | Median OS ([1]; no CRc, fewer than 6 cycles): 8 m | Patients who died from serious adverse events ([2]; all treated): Seven | Drug-related serious adverse event anemia ([2]; human, in vivo): 3% | Drug-related serious adverse event pneumonia ([2]; human, in vivo): 7% | Drug-related serious adverse event thrombocytopenia ([2]; human, in vivo): 3% | 30-day all-cause mortality ([2]; of 102 patients): 1% | 60-day all-cause mortality ([2]; of 102 patients): 4% | 90-day all-cause mortality ([2]; of 102 patients): 9% | Serious adverse events that led to death considered treatment related ([2]; pneumonia with 90 mg/m^2 and septic shock with 60 mg/m^2): two | CR Rate ([3]; 5-day regimen): 8% | CRc rate ([3]; 5-day regimen): 16% | CR Rate ([3]; 10-day regimen): 19% | CRc rate ([3]; 10-day regimen): 30% | 2-year survival rate ([3]; CR): 57% | 2-year survival rate ([3]; CRc patients receiving HCT): 50% | 2-year survival rate ([3]; CRc patients who did not undergo HCT): 60% | 2-year survival rate ([3]; CRp/CRi): 50% | CRc ([3]; early relapse (<6 months from prior treatment)): 22% | CR Composite (CR + CRp + CRi) Duration of Response, median (range) ([3]; in vivo): 7.8 (0.5-30) Months | Complete Response (CR) Duration of Response, median (range) ([3]; in vivo): 7 (1-29.5) Months | Post treatment HCT in responders ([3]; in vivo): 58% | Achieved CRc ([3]; of 19 patients who had prior HCT): 5 patients | Median OS ([3]; patients who achieved CRc (either CR or CRp/CRi)): has not been reached | CRc ([3]; patients who relapsed after prior HCT (19 patients)): 26% | CRc ([3]; patients with poor risk cytogenetics): 19% | CR response rate, % [3, 5]: (6%) | CRc (CR + CRp + CRi) response rate, % [3, 5]: (16%) | CRi response rate, % [3, 5]: (8%) | CRp response rate, % [3, 5]: (2%) | CR response rate, % [3, 6]: (19%) | CRc (CR + CRp + CRi) response rate, % [3, 6]: (30%) | CRi response rate, % [3, 6]: (4%) | CRp response rate, % [3, 6]: (7%) | CRc, % ([3]; subgroup Age (y) <65 (N 63)): (19%) | CRc, % ([3]; subgroup Age (y) >65 (N 40)): (30%) | CRc, % ([3]; subgroup Cytogenetics Adverse (N 42)): (19%) | CRc, % ([3]; subgroup Cytogenetics Diploid (N 21)): (19%) | CRc, % ([3]; subgroup Cytogenetics Others (N 40)): (30%) | CRc, % ([3]; subgroup ECOG PS 0-1 (N 89)): (26%) | CRc, % ([3]; subgroup ECOG PS 2 (N 12)): (7%) | CRc, % ([3]; subgroup Prior HCT No (N 84)): (23%) | CRc, % ([3]; subgroup Prior HCT Yes (N 19)): (26%) | CRc, % ([3]; subgroup Response to Induction CR (N 55)): (15%) | CRc, % ([3]; subgroup Response to Induction Refractory (N 48)): (25%) | CRc, % ([3]; subgroup Time From Last Therapy <6 months (N 82)): (22%) | CRc, % ([3]; subgroup Time From Last Therapy >6 months (N 20)): (30%) | CRc ([3]; refractory patients): 31% | Related AE with an outcome of death, each of: hematophagy histiocytosis, small intestinal hemorrhage, general physical health deterioration, mucormycosis, osteonecrosis ([4]; 1 subject each): 0.2% | Discontinuations due to a related AE that was an infection event ([4]; human, in vivo): 7 subjects | Dose reductions due to AEs ([4]; human, in vivo): 6.0% | Related SAE anemia ([4]; human, in vivo): 1.0% | Related SAE febrile neutropenia ([4]; human, in vivo): 13.7% | Related SAE pneumonia ([4]; human, in vivo): 8.5% | Related SAE sepsis ([4]; human, in vivo): 4.0% | Related SAE septic shock ([4]; human, in vivo): 1.2% | Related SAE thrombocytopenia ([4]; human, in vivo): 1.7% | SAE febrile neutropenia incidence ([4]; human, in vivo): 25.2% | SAE pneumonia incidence ([4]; human, in vivo): 28.4% | SAE sepsis incidence ([4]; human, in vivo): 15.0% | Treatment Discontinuation Before 4 Cycles: Adverse Event ([4]; human, in vivo): 6.4% | Treatment Discontinuation Before 6 Cycles: Adverse Event ([4]; human, in vivo): 7.4% | Treatment delays due to adverse events ([4]; human, in vivo): 48.1% | AE with an outcome of death: febrile neutropenia ([4]; human, in vivo, 60 mg/m^2): 0.2% | AE with an outcome of death: pneumonia ([4]; human, in vivo, 60 mg/m^2): 5.0% | AE with an outcome of death: sepsis ([4]; human, in vivo, 60 mg/m^2): 6.5% | AE with an outcome of death: septic shock ([4]; human, in vivo, 60 mg/m^2): 2.0% | Related AE with an outcome of death: febrile neutropenia ([4]; human, in vivo, 60 mg/m^2): 0.2% | Thirty-day all-cause mortality ([4]; human, in vivo, 60 mg/m^2, 30 day): 11.2% | 60-day mortality ([4]; human, in vivo, 60 mg/m^2, 60 day): 20.9% | Effect on heart rate (ECG) ([4]; in vivo): no effect on heart rate | Effects on ECG parameters ([4]; in vivo): No effects on ECG parameters were observed | Treatment Discontinuation Before 4 Cycles: Death ([4]; n = 408 I-1, n = 407 TC): 17.6% | Treatment Discontinuation Before 6 Cycles: Death ([4]; n = 408 I-1, n = 407 TC): 22.5%

From patent US20200352976A1, “HYPOMETHYLATING AGENTS FOR USE IN TREATMENT OF CANCER” (Otsuka Pharmaceutical Co., Ltd, priority 2019, published 2020)
